# Test results reported in patent US11220503B2, “Phthalazine derivatives, preparation method, pharmaceutical composition and usage thereof” (Shanghai SIMR Biotech Co., Ltd., priority 2015, dated 2022).
# Where two headings read alike, the source gives them in different places.
# Molecular target: T1, α5β3γ2 receptor (Homo sapiens, UniProt P18507+P31644)
# T1 construct: expressed in transfected cells; host or cells: HEK-293 (stably transfected)
# Test: Cell level screening: whole cell patch clamp, inverse agonist efficacy
# Type: cell-based
# Settings: for inhibition at 0.001 µM: Con. 1 nM; for inhibition at 0.01 µM: Con. 10 nM; for inhibition at 0.05 µM: Con. 50 nM; for inhibition at 1 µM: Con. 1000 nM; for inverse agonism efficacy of the compound/α5IA inverse agonism efficacy: ratio to α5IA, compound 100 nM
# Description: The inventors used electrophysiological methods to assay the inverse agonist efficacy of the substance to be tested. The detailed procedures are as follows: (1) Different subunits of GABAA receptors were expressed in human embryonic kidney cells 293 (HEK293). The cells were cultured in a culture medium and used as a cell model for screening potential analgesics. The α, β and γ subunits are necessary to form complete functional GABAA receptors. In this example, the inventor has established the following cell model: (a) α5 subunit (protein sequence is GenBank accession number: NP_001158509), β3 subunit (protein sequence is GenBank accession number: NP_068712) and γ2 subunit (protein sequence is GenBank accession number: NP_944494) were expressed in HEK-293 cell lines at the same time, which formed the complete functional GABAA receptors. (2) Cells were stably transfected HEK-293 cells expressing α5β3γ2 receptor, which were labeled by green fluorescent protein (GFP). Cells were grown in 10 cm dishes. The cells were passaged after reaching 80-90% confluence. During passaging, the culture medium was removed and discarded, 3 mL DMEM medium (Gibco™) was added to the dishes, the dishes were shaken slightly, and DMEM was removed and discarded. 3 mL Trypsin (Trypsin-EDTA 0.05%, Gibco™) was added and cells were digested at 37° C. for 3 minutes. Then 3 mL complete growth medium (DMEM+10% horse serum (Gibco™)) was added and the cells at the bottom of the culture dishes were dispersed. The cell suspension were transferred to a 15 mL centrifugal tube (Corning®) and then centrifuged at 200 g for 3 minutes. The supernatant was discarded, 4 mL complete growth medium was added, and the cells were resuspended by gently blowing. The cell suspension was diluted by 1:5 or 1:10 for subculturing. The cell suspension was diluted by 1:12 for electrophysiology experiment, which are added to the 24 well plate (Corning®) which has a glass slide pre-treated with poly-D-lysine. The cells were adhered to the slide before the experiment was conducted. The cells were maintained in culture for no more than 24 hours before use. (3) Compound concentration: for screening, all compounds were diluted to a final concentration of 100 nM. GABA was diluted at the concentration of 0.05-0.1 μM. The compounds were at the concentration of 1 nM, 10 nM, 50 nM, 100 nM and 1000 nM in dose-inverse agonism efficacy (%) experiment. The whole cell patch clamp technique was used in electrophysiology experiments. The extracellular solution (ECS) contained: 150 mM NaCl, 5 mM KCl, 2.5 mM CaCl2, 1 mM MgCl2, 10 mM HEPES and 10 mM glucose (pH 7.4); Patch electrodes were filled with an intracellular solution containing: 140 mM KCl, 5 mM EGTA, 10 mM HEPES (adjusted to pH 7.4 with KOH and to 320-330 mOsm with water). The currents were recorded by an EPC-10 amplifier and the PatchMaster software (HEKA). Patch electrodes with a resistance of 5-6 MΩ were pulled from borosilicate glass (Sutter). The diluted compounds were perfused by OCTAFLOWII system. GFP positive and independently growing cells were selected for recording. During recording, the membrane voltage was clamped at −60 mV. During experiment, the cells were firstly perfused with ECS for 20 seconds. When the baseline reached to a stable state, cells were then perfused with GABA solution. Then the current induced by GABA can be detected. After about 20-40 seconds, the current was stable. ECS was switched to compounds solution and the effects of the compounds were detected. At last, the perfusion solution was switched to ECS. The experiment was finished when the post-baseline returned to the pre-baseline before compounds perfusion. Only the data whose pre-baseline and post-baseline are at almost the same level were used for analysis. GABA was diluted at the concentration of 0.05-0.1 μM in ECS. Then, compounds were diluted at the desired concentration in GABA ECS. (4) Currents were analyzed with the PatchMaster (HEKA) software. […]
# [1] = HEK293, compound 100 nM, GABA 0.05-0.1 μM, HEK293 α5β3γ2, clamped at −60 mV, (Ipost-Ipre)*100/Ipre, read-out: inverse agonism efficacy(%)
# [2] = dose-efficacy, single replicates, read-out: Inverse agonism-Efficacy
# [3] = dose-efficacy, Con. 100 nM, single replicates, read-out: Inverse agonism-Efficacy
# T1 sequence (P31644 32-462): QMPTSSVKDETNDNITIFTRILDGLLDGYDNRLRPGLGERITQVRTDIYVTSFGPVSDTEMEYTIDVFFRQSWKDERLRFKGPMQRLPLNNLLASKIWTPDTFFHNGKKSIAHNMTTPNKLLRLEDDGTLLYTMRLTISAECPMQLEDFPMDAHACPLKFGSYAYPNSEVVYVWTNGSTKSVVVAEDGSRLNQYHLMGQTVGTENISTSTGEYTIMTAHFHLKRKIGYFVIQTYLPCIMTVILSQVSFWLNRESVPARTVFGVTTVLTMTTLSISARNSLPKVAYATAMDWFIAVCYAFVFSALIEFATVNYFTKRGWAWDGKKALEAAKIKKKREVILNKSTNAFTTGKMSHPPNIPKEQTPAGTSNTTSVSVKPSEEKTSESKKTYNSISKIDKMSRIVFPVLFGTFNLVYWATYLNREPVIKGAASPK
# T1 sequence (P28472 26-473 isoform P28472-2 partner limits assumed): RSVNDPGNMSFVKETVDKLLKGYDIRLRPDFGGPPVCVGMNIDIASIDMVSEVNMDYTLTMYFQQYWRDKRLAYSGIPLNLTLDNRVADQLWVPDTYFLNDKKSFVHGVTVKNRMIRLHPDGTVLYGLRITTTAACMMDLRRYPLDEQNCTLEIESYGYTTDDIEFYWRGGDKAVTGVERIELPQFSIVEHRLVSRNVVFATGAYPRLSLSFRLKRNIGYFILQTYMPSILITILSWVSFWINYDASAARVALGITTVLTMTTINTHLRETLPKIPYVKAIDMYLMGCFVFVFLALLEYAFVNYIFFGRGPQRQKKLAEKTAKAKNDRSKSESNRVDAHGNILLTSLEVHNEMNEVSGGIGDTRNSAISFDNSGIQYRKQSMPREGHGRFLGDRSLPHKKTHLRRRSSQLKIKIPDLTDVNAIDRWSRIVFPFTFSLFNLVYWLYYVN
# T1 sequence (P18507 40-475): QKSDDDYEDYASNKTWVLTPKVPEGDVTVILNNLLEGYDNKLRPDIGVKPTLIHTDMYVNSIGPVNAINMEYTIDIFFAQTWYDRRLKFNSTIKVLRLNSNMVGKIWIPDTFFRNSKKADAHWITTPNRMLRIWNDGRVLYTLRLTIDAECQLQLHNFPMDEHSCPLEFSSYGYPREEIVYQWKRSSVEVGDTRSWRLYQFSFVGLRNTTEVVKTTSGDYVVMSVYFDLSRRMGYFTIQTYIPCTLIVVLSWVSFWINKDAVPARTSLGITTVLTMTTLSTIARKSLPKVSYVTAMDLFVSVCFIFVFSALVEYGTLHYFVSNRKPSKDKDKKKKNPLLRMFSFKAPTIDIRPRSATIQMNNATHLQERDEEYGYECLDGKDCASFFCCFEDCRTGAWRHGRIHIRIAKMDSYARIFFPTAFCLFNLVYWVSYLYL
SMILES,inhibition at 0.1 µM [1],inhibition at 0.001 µM [2],inhibition at 0.01 µM [2],inhibition at 0.05 µM [2],inhibition at 0.1 µM [3],inhibition at 1 µM [2],inverse agonism efficacy of the compound/α5IA inverse agonism efficacy
"Cc1nc(-c2nnc3c4ccccc4c(OCc4ccc(C(=O)N[C@H](C)CO)cc4C#N)nn23)no1 [Compound 31, (R)-3-cyano-N-(1-hydroxypropan-2-yl)-4-(((3-(5-methyl-1,2,4-oxadiazol-3-yl)-[1,2,4]triazolo[3,4-a]phthalazin-6-yl)oxy)methyl)benzamide]",47.8%,–,–,–,–,–,2.1179
"Cc1cc(-c2nnc3c4ccccc4c(OCc4ccc(C(=O)N[C@H](C)CO)cc4Br)nn23)no1 [Compound 32, (R)-3-bromo-N-(1-hydroxypropan-2-yl)-4-(((3-(5-methylisoxazol-3-yl)-[1,2,4]triazolo[3,4-a]phthalazin-6-yl)oxy)methyl)benzamide]",39.2%,–,–,–,–,–,1.739
"C[C@H](CO)NC(=O)c1ccc(COc2nn3c(-c4ccoc4)nnc3c3ccccc23)nc1 [Compound 59, (R)-6-(((3-(furan-3-yl)-[1,2,4]triazolo[3,4-a]phthalazin-6-yl)oxy)methyl)-N-(1-hydroxypropan-2-yl)nicotinamide]",39%,–,–,–,–,–,1.73
"C[C@H](CO)NC(=O)c1ccc(COc2nn3c(-c4ccsc4)nnc3c3ccccc23)nc1 [Compound 60, (R)—N-(1-hydroxypropan-2-yl)-6-(((3-(thiophen-3-yl)-[1,2,4]triazolo[3,4-a]phthalazin-6-yl)oxy)methyl)nicotinamide]",32.6%,–,–,–,–,–,1.447
"Cc1nc(COc2nn3c(-c4cc(CO)on4)nnc3c3ccccc23)ccc1C(=O)N[C@H](C)CO [Compound 61, (R)-6-(((3-(5-(hydroxymethyl)isoxazol-3-yl)-[1,2,4]triazolo[3,4-a]phthalazin-6-yl)oxy)methyl)-N-(1-hydroxypropan-2-yl)-2-methylnicotinamide]",46.2%,–,–,–,–,–,2.047
"Cc1cc(-c2nnc3c4ccccc4c(OCc4cn(C)nn4)nn23)no1 [α5IA, reference compound]",22.6%,4.2%,9.4%,22.1%,19%,20.7%,–

# Continued, values first:
inhibition at 0.1 µM [1],inhibition at 0.001 µM [2],inhibition at 0.01 µM [2],inhibition at 0.05 µM [2],inhibition at 0.1 µM [3],inhibition at 1 µM [2],inverse agonism efficacy of the compound/α5IA inverse agonism efficacy,SMILES
36%,10%,17%,23.1%,26%,32.3%,1.596,"Cc1cc(-c2nnc3c4ccccc4c(OCc4ccc(C(=O)N(C)C)cn4)nn23)no1 [Compound 06, N,N-dimethyl-6-(((3-(5-methylisoxazol-3-yl)-[1,2,4]triazolo[3,4-a]phthalazin-6-yl)oxy)methyl)nicotinamide]"
33%,–,–,–,–,–,1.463,"O=C(NN1CCOCC1)c1ccc(COc2nn3c(-c4cc(CO)on4)nnc3c3ccccc23)nc1 [Compound 33, 6-(((3-(5-(hydroxymethyl)isoxazol-3-yl)-[1,2,4]triazolo[3,4-a]phthalazin-6-yl)oxy)methyl)-N-morpholinonicotinamide]"
32%,–,–,–,–,–,1.419,"Cn1cc(NC(=O)c2ccc(COc3nn4c(-c5cc(CO)on5)nnc4c4ccccc34)nc2)cn1 [Compound 37, 6-(((3-(5-(hydroxymethyl)isoxazol-3-yl)-[1,2,4]triazolo[3,4-a]phthalazin-6-yl)oxy)methyl)-N-(1-methyl-1H-pyrazol-4-yl)nicotinamide]"
42.1%,–,–,–,–,–,1.867,"O=C(c1ccc(COc2nn3c(-c4cc(CO)on4)nnc3c3ccccc23)nc1)N1CCOCC1 [Compound 41, (6-(((3-(5-(hydroxymethyl)isoxazol-3-yl)-[1,2,4]triazolo[3,4-a]phthalazin-6-yl)oxy)methyl)pyridin-3-yl)(morpholino)methanone]"
30.2%,–,–,–,–,–,1.339,"CN(C)C(=O)c1ccc(COc2nn3c(-c4cc(CO)on4)nnc3c3ccccc23)nc1 [Compound 45, 6-(((3-(5-(hydroxymethyl)isoxazol-3-yl)-[1,2,4]triazolo[3,4-a]phthalazin-6-yl)oxy)methyl)-N,N-dimethylnicotinamide]"
30.5%,–,–,–,–,–,1.351,"NNC(=O)c1ccc(COc2nn3c(-c4cc(CO)on4)nnc3c3ccccc23)nc1 [Compound 51, 6-(((3-(5-(hydroxymethyl)isoxazol-3-yl)-[1,2,4]triazolo[3,4-a]phthalazin-6-yl)oxy)methyl)nicotinohydrazide]"
34%,–,–,–,–,–,1.508,"O=C(NN1CCS(=O)(=O)CC1)c1ccc(COc2nn3c(-c4cc(CO)on4)nnc3c3ccccc23)nc1 [Compound 54, N-(1,1-dioxidothiomorpholino)-6-(((3-(5-(hydroxymethyl)isoxazol-3-yl)-[1,2,4]triazolo[3,4-a]phthalazin-6-yl)oxy)methyl)nicotinamide]"
